ChEMBL document CHEMBL3792324, “Discovery of KDM5A inhibitors: Homology modeling, virtual screening and structure-activity relationship analysis” (Bioorg Med Chem Lett, 2016)
Active and inactive are the calls of the source. No cut-off for these calls is given here.

Experiments:
[1] = target: T1, Lysine-specific demethylase 5A (Homo sapiens, UniProt P29375); test: Inhibition of KDM5A (unknown origin) using substrate peptide/ascorbate/2-OG/ Fe(2) as substrate at 10 uM preincubated for 15 mins followed by addition of substrate peptide/ ascorbate/2-OG/ Fe(2) measured after 1 hr by AlphaLISA method
T1 sequence (P29375 whole entry): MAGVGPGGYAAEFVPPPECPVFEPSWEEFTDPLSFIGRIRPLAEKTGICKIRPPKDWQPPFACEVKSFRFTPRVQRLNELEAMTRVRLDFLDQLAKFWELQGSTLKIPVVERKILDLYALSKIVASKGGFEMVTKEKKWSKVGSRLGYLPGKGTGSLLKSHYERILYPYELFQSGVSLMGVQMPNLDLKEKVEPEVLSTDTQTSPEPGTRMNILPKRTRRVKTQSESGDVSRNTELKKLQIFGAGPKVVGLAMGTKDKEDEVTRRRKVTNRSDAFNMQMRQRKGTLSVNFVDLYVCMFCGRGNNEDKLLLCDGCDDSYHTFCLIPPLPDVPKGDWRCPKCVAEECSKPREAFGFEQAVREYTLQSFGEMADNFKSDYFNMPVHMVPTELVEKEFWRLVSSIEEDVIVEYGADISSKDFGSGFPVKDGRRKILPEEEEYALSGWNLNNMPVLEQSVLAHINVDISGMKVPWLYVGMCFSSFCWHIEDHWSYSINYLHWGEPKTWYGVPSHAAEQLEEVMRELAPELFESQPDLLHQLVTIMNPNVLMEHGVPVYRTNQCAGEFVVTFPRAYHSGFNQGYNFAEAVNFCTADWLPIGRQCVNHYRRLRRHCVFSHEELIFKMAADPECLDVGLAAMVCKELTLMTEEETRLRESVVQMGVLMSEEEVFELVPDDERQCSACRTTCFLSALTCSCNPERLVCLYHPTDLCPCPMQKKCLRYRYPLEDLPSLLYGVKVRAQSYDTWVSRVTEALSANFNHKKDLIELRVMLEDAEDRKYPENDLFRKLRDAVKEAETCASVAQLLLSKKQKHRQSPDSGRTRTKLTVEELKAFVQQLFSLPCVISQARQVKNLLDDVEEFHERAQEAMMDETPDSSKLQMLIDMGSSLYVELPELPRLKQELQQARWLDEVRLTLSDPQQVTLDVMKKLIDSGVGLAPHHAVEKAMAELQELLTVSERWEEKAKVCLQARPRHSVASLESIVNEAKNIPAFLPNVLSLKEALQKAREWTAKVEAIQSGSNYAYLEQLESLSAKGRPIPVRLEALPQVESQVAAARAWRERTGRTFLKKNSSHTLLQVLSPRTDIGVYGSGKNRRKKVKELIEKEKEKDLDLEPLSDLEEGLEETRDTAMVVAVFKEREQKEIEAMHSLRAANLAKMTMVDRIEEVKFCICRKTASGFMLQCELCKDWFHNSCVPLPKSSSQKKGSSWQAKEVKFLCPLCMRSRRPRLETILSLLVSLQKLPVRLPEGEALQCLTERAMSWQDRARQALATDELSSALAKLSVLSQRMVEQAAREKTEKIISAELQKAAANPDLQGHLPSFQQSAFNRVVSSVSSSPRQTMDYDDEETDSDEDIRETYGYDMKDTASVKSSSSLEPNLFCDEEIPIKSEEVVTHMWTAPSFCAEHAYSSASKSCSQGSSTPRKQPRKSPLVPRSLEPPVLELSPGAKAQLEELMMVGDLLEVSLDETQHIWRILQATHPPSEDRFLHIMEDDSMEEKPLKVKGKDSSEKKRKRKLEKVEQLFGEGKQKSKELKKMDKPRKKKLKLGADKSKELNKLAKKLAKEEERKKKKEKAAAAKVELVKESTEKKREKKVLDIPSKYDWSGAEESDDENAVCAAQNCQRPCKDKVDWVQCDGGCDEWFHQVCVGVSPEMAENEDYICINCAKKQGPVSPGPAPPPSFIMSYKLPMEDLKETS

[2] = target: T1, Lysine-specific demethylase 5A; test: Inhibition of KDM5A (unknown origin) using substrate peptide/ascorbate/2-OG/ Fe(2) as substrate preincubated for 15 mins followed by addition of substrate peptide/ ascorbate/2-OG/ Fe(2) measured after 1 hr by AlphaLISA method
[3] = target: T1, Lysine-specific demethylase 5A; test: […] of KDM5A in human ZR-75-1 cells effect on H3K4me3 expression after 48 hrs by Western blot analysis; assay type: cell-based
[4] = target: Lysine-specific demethylase 6B (Homo sapiens, UniProt O15054); test: Inhibition of KDM6B (unknown origin) using substrate peptide/ascorbate/2-OG/ Fe(2) as substrate preincubated for 15 mins followed by addition of substrate peptide/ ascorbate/2-OG/ Fe(2) measured after 1 hr by AlphaLISA method
[5] = target: Lysine-specific demethylase 5B (Homo sapiens, UniProt Q9UGL1); test: Inhibition of KDM5B (unknown origin) using substrate peptide/ascorbate/2-OG/ Fe(2) as substrate preincubated for 15 mins followed by addition of substrate peptide/ ascorbate/2-OG/ Fe(2) measured after 1 hr by AlphaLISA method
[6] = target: T2, Lysine-specific demethylase 4E (Homo sapiens, UniProt B2RXH2); test: Inhibition of KDM4E (unknown origin) using substrate peptide/ascorbate/2-OG/ Fe(2) as substrate preincubated for 15 mins followed by addition of substrate peptide/ ascorbate/2-OG/ Fe(2) measured after 1 hr by AlphaLISA method
T2 sequence (B2RXH2 whole entry): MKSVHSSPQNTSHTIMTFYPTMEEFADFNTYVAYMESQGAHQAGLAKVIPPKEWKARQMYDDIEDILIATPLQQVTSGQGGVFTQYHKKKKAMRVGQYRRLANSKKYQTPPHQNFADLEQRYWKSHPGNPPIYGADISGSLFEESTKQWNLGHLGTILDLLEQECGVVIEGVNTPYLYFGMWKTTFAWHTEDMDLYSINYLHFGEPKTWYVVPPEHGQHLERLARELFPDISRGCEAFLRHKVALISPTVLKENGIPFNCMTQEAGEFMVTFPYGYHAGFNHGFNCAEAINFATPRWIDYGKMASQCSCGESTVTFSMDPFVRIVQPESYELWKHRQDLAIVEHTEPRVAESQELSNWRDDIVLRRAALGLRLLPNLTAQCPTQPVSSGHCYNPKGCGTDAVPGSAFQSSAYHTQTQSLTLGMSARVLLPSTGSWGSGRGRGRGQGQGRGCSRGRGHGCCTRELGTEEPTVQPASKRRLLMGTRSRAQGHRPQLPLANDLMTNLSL

[7] = target: T3, Lysine-specific demethylase 3A (Homo sapiens, UniProt Q9Y4C1); test: Inhibition of KDM3A (unknown origin) using substrate peptide/ascorbate/2-OG/ Fe(2) as substrate preincubated for 15 mins followed by addition of substrate peptide/ ascorbate/2-OG/ Fe(2) measured after 1 hr by AlphaLISA method
T3 sequence (Q9Y4C1 whole entry): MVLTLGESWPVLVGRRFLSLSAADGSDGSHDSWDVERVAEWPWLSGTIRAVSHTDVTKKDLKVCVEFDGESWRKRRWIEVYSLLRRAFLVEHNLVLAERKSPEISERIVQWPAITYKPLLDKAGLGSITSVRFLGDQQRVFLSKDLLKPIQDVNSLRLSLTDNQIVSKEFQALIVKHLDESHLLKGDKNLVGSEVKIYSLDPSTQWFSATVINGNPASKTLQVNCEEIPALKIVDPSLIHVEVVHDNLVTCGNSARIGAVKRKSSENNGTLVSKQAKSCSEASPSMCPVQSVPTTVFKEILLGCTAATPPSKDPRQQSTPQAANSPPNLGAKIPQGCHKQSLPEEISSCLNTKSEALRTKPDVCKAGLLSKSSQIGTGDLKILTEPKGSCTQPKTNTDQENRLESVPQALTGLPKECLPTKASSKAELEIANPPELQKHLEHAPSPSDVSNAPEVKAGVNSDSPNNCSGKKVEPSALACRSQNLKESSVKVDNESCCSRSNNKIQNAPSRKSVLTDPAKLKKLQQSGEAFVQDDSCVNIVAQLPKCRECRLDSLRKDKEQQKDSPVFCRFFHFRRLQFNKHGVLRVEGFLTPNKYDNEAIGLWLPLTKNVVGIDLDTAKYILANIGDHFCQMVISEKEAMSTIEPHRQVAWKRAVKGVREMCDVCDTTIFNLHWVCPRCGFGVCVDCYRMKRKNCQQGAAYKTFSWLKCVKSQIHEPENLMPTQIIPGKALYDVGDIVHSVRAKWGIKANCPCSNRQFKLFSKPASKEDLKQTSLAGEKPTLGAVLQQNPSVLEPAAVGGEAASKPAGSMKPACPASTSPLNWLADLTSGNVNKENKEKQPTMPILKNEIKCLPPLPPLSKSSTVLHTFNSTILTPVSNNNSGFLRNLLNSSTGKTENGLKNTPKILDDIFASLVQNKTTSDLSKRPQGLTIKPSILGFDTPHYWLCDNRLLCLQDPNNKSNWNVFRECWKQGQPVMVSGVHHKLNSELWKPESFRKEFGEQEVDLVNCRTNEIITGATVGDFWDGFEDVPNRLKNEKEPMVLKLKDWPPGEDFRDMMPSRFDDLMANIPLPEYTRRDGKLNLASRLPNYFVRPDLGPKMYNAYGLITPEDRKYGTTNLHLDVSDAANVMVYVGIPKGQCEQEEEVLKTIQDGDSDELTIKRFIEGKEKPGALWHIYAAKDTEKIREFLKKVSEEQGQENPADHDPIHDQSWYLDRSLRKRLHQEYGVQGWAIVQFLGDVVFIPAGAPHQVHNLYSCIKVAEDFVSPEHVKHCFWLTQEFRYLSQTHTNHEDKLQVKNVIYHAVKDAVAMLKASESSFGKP

[8] = target: Probable JmjC domain-containing histone demethylation protein 2C (Homo sapiens, UniProt Q15652); test: Inhibition of KDM3C (unknown origin) using substrate peptide/ascorbate/2-OG/ Fe(2) as substrate preincubated for 15 mins followed by addition of substrate peptide/ ascorbate/2-OG/ Fe(2) measured after 1 hr by AlphaLISA method
Chain of Probable JmjC domain-containing histone demethylation protein 2C (Q15652 whole entry, the tested form may be a part): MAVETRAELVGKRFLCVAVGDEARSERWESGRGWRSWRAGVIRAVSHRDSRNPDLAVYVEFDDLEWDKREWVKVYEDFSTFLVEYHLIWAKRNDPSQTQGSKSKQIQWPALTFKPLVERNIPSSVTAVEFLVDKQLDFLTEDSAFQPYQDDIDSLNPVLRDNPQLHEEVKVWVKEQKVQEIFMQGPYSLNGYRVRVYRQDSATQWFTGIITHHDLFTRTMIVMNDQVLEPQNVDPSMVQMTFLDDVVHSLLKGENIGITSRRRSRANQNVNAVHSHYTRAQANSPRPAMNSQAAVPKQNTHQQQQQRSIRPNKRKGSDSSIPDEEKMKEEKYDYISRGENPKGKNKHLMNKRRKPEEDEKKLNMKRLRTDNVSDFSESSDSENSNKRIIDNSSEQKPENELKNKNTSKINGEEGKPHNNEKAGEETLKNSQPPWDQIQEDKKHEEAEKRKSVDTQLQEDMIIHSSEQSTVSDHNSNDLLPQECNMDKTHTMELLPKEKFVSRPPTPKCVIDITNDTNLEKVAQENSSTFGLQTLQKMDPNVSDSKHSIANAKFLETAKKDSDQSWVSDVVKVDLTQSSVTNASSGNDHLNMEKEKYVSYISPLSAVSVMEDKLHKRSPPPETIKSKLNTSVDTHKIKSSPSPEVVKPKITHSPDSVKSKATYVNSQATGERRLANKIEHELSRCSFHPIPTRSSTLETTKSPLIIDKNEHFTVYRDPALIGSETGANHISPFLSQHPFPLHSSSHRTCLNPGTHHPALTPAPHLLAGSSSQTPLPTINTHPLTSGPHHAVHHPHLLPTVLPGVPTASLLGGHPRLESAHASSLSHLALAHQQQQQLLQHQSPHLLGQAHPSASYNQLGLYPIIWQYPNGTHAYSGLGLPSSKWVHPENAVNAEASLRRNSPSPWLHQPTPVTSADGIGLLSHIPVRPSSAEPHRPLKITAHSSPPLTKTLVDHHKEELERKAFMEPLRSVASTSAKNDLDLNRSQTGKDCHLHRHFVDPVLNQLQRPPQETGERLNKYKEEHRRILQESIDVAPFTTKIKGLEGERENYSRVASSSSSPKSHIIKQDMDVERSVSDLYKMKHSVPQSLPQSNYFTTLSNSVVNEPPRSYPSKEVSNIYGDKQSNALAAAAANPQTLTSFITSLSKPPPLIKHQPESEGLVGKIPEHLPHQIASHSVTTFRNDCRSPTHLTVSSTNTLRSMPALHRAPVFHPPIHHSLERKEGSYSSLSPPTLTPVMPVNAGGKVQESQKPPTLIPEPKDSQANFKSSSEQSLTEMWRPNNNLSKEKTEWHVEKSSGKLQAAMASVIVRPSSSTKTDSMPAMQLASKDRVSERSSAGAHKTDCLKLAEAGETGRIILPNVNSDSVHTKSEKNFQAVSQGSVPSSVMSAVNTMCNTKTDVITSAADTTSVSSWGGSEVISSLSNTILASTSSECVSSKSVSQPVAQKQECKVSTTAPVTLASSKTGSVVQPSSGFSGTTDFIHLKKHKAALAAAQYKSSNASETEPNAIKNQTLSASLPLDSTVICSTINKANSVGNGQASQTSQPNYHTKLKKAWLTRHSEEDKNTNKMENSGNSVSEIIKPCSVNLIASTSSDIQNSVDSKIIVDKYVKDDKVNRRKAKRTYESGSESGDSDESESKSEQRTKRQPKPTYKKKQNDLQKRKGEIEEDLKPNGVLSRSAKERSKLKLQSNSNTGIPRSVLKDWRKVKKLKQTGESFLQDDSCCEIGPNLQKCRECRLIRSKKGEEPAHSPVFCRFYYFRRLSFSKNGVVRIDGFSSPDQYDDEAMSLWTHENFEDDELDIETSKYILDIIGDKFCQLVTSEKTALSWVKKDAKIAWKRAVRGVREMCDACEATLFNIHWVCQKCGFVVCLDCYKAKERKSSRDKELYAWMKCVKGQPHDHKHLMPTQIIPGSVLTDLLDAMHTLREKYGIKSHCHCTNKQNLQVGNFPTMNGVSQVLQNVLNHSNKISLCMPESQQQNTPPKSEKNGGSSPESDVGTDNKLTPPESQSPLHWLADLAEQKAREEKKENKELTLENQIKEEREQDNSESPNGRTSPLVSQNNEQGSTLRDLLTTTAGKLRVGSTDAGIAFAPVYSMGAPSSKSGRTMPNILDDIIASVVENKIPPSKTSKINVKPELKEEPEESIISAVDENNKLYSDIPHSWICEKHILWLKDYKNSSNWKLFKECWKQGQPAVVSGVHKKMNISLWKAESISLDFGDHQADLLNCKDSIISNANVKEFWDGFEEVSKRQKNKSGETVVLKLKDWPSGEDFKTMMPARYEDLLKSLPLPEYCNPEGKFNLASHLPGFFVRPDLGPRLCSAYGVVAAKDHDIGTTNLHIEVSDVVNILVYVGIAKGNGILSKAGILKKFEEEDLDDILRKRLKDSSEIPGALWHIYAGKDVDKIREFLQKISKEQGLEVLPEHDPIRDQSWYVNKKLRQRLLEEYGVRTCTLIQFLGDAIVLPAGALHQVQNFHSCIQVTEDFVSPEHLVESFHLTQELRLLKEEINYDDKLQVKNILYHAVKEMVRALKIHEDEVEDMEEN

SMILES	inhibition [1] [%]	IC50 [2] [µM]	further results
Oc1ccccc1/C=N/Nc1ncccn1	32	–	–
Cc1ccnc(N/N=C/c2ccccc2O)n1	44	–	–
Oc1ccccc1/C=N/Nc1nccc(N2CCOCC2)n1	42	–	–
O=C(NNc1c2ccccc2nc2ccccc12)c1ccccn1	–	7	–
O=C(COc1cc(O)c2c(=O)cc(-c3ccccc3)oc2c1)OCc1ccccc1	–	4.2	–
NNc1nccc(C(F)(F)F)n1	–	–	Activity [3]: inactive
NNC(=O)c1ccc(O)cc1	–	13	–
NNc1ncc2ccccc2n1	–	–	Activity [3]: inactive
COc1ccc(Oc2ccnc(NN)n2)cc1	–	–	Activity [3]: inactive
Cc1ccc(C(=O)c2coc3c2C(=O)C(=O)C(Br)=C3)cc1	–	5	–
CCN(C1=C(Cl)C(=O)N(c2cccc(C)c2C)C1=O)c1ccccc1	–	83	–
O=C(O)c1ccnc(N/N=C/c2ccccc2O)n1	88	–	–
Oc1ccccc1/C=N/Nc1ncc(F)cn1	–	–	Activity [3]: inactive
Oc1ccccc1/C=N/Nc1ncc(F)c(N2CCOCC2)n1	58	2.3	–
NNc1nccc(N2CCOCC2)n1	–	–	Activity [3]: inactive
O=C(O)c1ccnc(N/N=C/c2ccccc2)n1	0	–	–

SMILES	inhibition [1] [%]	IC50 [2] [µM]	further results
NNc1nccc(Oc2ccccc2)n1	–	–	Activity [3]: inactive
O=c1c2ccccc2oc2c(O)ccc(O)c12	–	25	–
Oc1ccccc1/C=N/Nc1ncc(Cl)cn1	19	–	–
NNc1ncc(Cl)cn1	–	–	Activity [3]: inactive
N#Cc1ccc(Nc2nc(NN)ncc2[N+](=O)[O-])cc1	14	–	–
NNc1ncccn1	8	–	–
NNc1ncc(F)cn1	10	–	–
Cc1ccnc(NN)n1	-6	–	Activity [3]: inactive
O=C1c2ccccc2C(=O)c2c1ccc1c(=O)n(-c3ccc(Cl)cc3)[nH]c21	–	13	–
NNc1nccc(C(=O)O)n1	99	0.22	IC50 [4]: > 100 µM; IC50 [5]: > 100 µM; IC50 [6]: 13 µM; IC50 [7]: 43 µM; IC50 [8]: 1900 nM
NNc1nccc(Oc2ccc(F)cc2)n1	–	–	Activity [3]: inactive
CNc1ccccc(C(=O)/C=C/c2cccc(Oc3ccccc3)c2)c1=O	–	64	–
c1ccc(Cc2nnc3sc(-c4ccccn4)nn23)cc1	–	25	–
NNc1nccc(-c2cccc(C(=O)O)c2)n1	26	–	–
O=C(O)c1ccnc(N/N=C/c2ccco2)n1	3	–	–
NNc1ncc(F)c(N2CCOCC2)n1	0	–	–
